# Measurements published in US9499492B2, “4-(ortho)-fluorophenyl-5-fluoropyrimidin-2-yl amines containing a sulfoximine group” (BAYER PHARMA AKTIENGESELLSCHAFT, priority 2012, dated 2016).
# pIC50: −log10 of the molar value. Read-outs that look alike come from different tables or passages of the source.
# Key:
# [1] = target: CDK2/CycE (Homo sapiens (Human), UniProt P24941); experiment: CDK2/CycE kinase assay (Method 2); type: biochemical; details: 10 μM ATP
# [2] = target: human carbonic anhydrase-1 (Homo sapiens (Human), UniProt P00915); experiment: Carbonic anhydrase assay, carbonic anhydrase-1 (Method 4); type: biochemical; details: read-out: Inhibition of Carbonic anhydrase-1 IC50
# Chain of human carbonic anhydrase-1 (P00915 whole entry): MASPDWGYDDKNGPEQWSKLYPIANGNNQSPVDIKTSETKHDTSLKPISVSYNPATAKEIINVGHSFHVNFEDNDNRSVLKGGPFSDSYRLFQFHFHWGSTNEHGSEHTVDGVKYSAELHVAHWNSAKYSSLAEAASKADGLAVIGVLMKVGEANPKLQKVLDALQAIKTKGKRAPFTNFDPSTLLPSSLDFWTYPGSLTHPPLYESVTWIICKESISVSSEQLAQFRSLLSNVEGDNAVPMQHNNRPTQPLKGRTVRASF
# Protocol: (§1) 4. Carbonic Anhydrase Assay
# (§2) 2 μL of the test compounds, dissolved in DMSO (100-fold final concentration), in a concentration range of 0.03-10 μmol/L (final), was pipetted as quadruplicates into the wells of a 96-hole microtiter plate. Wells that contained the solvent without test compounds were used as reference values (1. Wells without carbonic anhydrase for correction of the non-enzymatic hydrolysis of the substrate, and 2. Wells with carbonic anhydrase for determining the activity of the non-inhibited enzyme).
# (§3) 188 μL of assay buffer (10 mmol/L of Tris/HCl, pH 7.4, 80 mmol/L of NaCl), with or without 3 units/well of carbonic anhydrase-1 [=human carbonic anhydrase-1 (Sigma, #C4396)] in order to determine carbonic anhydrase-1 inhibition or 3 units/well of carbonic anhydrase-2 [=human carbonic anhydrase-2 (Sigma, #C6165)] for measuring carbonic anhydrase-2 inhibition, was pipetted into the wells of the microtiter plate.
# [3] = target: human carbonic anhydrase-2 (Homo sapiens (Human), UniProt P00918); experiment: Carbonic anhydrase assay, carbonic anhydrase-2 (Method 4); type: biochemical; details: read-out: Inhibition of Carbonic anhydrase-2 IC50
# Protocol: as §1
# The principle of the assay is based on the hydrolysis of 4-nitrophenyl acetate by carbonic anhydrases (Pocker & Stone, Biochemistry, 1967, 6, 668), with subsequent photometric determination of the dye product 4-nitrophenolate at 400 nm by means of a 96-channel spectral photometer.
# as §2, §3
# [4] = test system: HeLa, human cervical tumour cells; experiment: Proliferation assay, HeLa (Method 3); type: cell-based; details: 4 days, crystal violet, read-out: Inhibition of HeLa cell proliferation IC50
# Outline: (§4)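 Cells were seeded and, after 24 h, exposed to compounds at 0.001–10 µM (final DMSO 0.5%) for 4 days. Cell number was measured by glutaraldehyde fixation, crystal violet staining and absorbance at 595 nm. Values were normalised to a zero-point plate (0%) and untreated cells (100%).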
# [5] = test system: HeLa-MaTu-ADR, multidrug-resistant human cervical carcinoma cells; experiment: Proliferation assay, HeLa-MaTu-ADR (Method 3); type: cell-based; details: 4 days, crystal violet, read-out: Inhibition of HeLa-MaTu-ADR cell proliferation IC50
# Protocol: (§5) After 24 hours, the cells of one plate (zero-point plate) were stained with crystal violet (see below), while the medium of the other plates was replaced by fresh culture medium (200 μl), to which the test substances were added in various concentrations (0 μM, as well as in the range of 0.001-10 μM; the final concentration of the solvent dimethyl sulfoxide was 0.5%). The cells were incubated for 4 days in the presence of test substances. Cell proliferation was determined by staining the cells with crystal violet: the cells were fixed by adding 20 μl/measuring point of an 11% glutaric aldehyde solution for 15 minutes at room temperature. After three washing cycles of the fixed cells with water, the plates were dried at room temperature. The cells were stained by adding 100 μl/measuring point of a 0.1% crystal violet solution (pH 3.0). After three washing cycles of the stained cells with water, the plates were dried at room temperature. The dye was dissolved by adding 100 μl/measuring point of a 10% acetic acid solution. The extinction was determined by photometry at a wavelength of 595 nm. The change of cell number, in percent, was calculated by normalization of the measured values to the extinction values of the zero-point plate (=0%) and the extinction of the untreated (0 μm) cells (=100%).
# [6] = test system: NCI-H460, human non-small cell lung carcinoma cells; experiment: Proliferation assay, NCI-H460 (Method 3); type: cell-based; details: NCI-H460, 4 days, crystal violet, read-out: Inhibition of H460 cell proliferation IC50
# Protocol: as §5
# [7] = test system: DU 145, hormone-independent human prostate carcinoma cells; experiment: Proliferation assay, DU 145 (Method 3); type: cell-based; details: DU145, 4 days, crystal violet, read-out: Inhibition of DU145 cell proliferation IC50
# Protocol: as §5
# [8] = test system: Caco-2, human colorectal carcinoma cells; experiment: Proliferation assay, Caco-2 (Method 3); type: cell-based; details: Caco-2, 4 days, crystal violet, read-out: Inhibition of Caco-2 cell proliferation IC50
# Protocol: as §5
# [9] = test system: B16F10, mouse melanoma cells; experiment: Proliferation assay, B16F10 (Method 3); type: cell-based; details: B16F10, 4 days, crystal violet, read-out: Inhibition of B16F10 cell proliferation IC50
# Protocol: as §5
# [10] = target: T1, CDK9/CycT1 (Homo sapiens (Human), UniProt P50750); experiment: CDK9/CycT1 kinase assay (Method 1a); type: biochemical; details: 10 μM ATP
# T1 sequence (P50750 whole entry): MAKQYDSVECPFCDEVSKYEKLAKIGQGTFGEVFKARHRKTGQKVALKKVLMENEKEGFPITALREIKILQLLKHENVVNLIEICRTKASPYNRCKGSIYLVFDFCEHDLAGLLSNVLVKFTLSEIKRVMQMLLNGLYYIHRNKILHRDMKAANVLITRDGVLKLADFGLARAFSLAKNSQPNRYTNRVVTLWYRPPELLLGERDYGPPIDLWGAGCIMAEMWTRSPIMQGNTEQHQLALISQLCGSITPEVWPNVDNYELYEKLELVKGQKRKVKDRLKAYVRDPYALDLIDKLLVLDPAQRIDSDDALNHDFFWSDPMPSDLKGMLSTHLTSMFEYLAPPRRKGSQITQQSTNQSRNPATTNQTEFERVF
# T1 sequence (O60563 whole entry partner): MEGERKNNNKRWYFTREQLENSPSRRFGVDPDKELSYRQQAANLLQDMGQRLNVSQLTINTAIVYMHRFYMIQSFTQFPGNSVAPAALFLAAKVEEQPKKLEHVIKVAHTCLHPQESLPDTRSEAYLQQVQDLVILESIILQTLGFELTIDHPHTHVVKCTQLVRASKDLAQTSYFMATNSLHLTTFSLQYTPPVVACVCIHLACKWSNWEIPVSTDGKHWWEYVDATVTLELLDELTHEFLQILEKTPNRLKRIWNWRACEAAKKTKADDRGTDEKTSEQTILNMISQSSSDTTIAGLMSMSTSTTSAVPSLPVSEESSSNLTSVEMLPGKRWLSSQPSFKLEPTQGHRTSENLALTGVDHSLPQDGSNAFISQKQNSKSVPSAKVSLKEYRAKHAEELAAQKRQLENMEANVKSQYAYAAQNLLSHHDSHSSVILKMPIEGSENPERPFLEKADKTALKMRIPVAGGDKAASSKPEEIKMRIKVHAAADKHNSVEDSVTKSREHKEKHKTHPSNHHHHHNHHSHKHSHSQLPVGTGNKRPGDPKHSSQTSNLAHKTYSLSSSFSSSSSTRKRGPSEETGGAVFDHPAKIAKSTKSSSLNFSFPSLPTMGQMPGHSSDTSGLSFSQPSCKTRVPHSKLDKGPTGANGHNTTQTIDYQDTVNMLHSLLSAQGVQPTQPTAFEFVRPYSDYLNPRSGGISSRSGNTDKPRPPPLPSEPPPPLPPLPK
# [11] = target: T1, CDK9/CycT1; experiment: CDK9/CycT1 high ATP kinase assay (Method 1b); type: biochemical; details: 2 mM ATP
# Outline: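 Full-length His-tagged human CDK9/CycT1 (insect cells, ~0.5 μg/ml) pre-incubated 15 min at 22 °C with compound in Tris pH 8.0/MgCl2/DTT buffer; biotinylated peptide substrate, high ATP. After detection reagents, 1 h at 22 °C; TR-FRET 665/620 nm emission ratio (350 nm excitation) measured phosphorylation.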
# [12] = test system: A2780, human ovarian carcinoma cells; experiment: Proliferation assay, A2780 (Method 3); type: cell-based; details: A2780, 4 days, crystal violet; read-out: Inhibition of A2780 cell proliferation IC50
# Outline: as §4
# [13] = test system: MOLM-13 human acute myeloid leukemia cells; experiment: Proliferation assay, MOLM-13 (Cell Titre-Glo, Method 3); type: cell-based; details: MOLM-13, 72-hour exposure, read-out: Inhibition of MOLM-13 cell proliferation IC50
# Protocol: Non-adherent MOLM-13 human acute myeloid leukemia cells (DSMZ ACC 554) were seeded at a density of 5,000 cells/well in a 96-well multititer plate in 100 μL of growth medium supplemented 10% fetal calf serum. After 24 hours, cell viability of one plate (zero-point plate) was determined with the Cell Titre-Glo Luminescent Cell Viability Assay (Promega), while 50 μL of test compound containing medium was added to the wells of the other plates (final concentrations in the range of 0.001-10 μM and DMSO controls; the final concentration of the solvent dimethyl sulfoxide was 0.5%). Cell viability was assessed after 72-hour exposure with the Cell Titre-Glo Luminescent Cell Viability Assay (Promega).
# [14] = In vitro metabolic stability in rat hepatocytes (Method 5); type: in vitro ADME, Han Wistar rat; details: 1 μM test compound
# Protocol: 5. Investigation of In Vitro Metabolic Stability in Rat Hepatocytes
# Hepatocytes from Han Wistar rats were isolated via a 2-step perfusion method. After perfusion, the liver was carefully removed from the rat: the liver capsule was opened and the hepatocytes were gently shaken out into a Petri dish with ice-cold Williams medium E (purchased from Sigma Aldrich Life Science, St Louis, Mo.). The resulting cell suspension was filtered through sterile gaze in 50 ml falcon tubes and centrifuged at 50×g for 3 min at room temperature. The cell pellet was resuspended in 30 ml WME and centrifuged through a Percoll® gradient for 2 times at 100×g. The hepatocytes were washed again with Williams' medium E (WMA) and resuspended in medium containing 5% Fetal calf serum (FCS, purchased from Invitrogen, Auckland, NZ). Cell viability was determined by trypan blue exclusion.
# For the metabolic stability assay liver cells were distributed in WME containing 5% FCS to glass vials at a density of 1.0×10^6 vital cells/ml. The test compound was added to a final concentration of 1 μM. During incubation, the hepatocyte suspensions were continuously shaken and aliquots were taken at 2, 8, 16, 30, 45 and 90 min, to which equal volumes of cold acetonitrile were immediately added. Samples were frozen at −20° C. over night, after subsequently centrifuged for 15 minutes at 3000 rpm and the supernatant was analyzed with an Agilent 1200 HPLC-system with LCMS/MS detection.
# The half-life of a test compound was determined from the concentration-time plot. From the half-life the intrinsic clearances were calculated. Together with the additional parameters liver blood flow, amount of liver cells in vivo and in vitro.
pIC50 [1],pIC50 [2],pIC50 [3],"pIC50 ([4]; Homo sapiens, 96 h)","pIC50 ([5]; Homo sapiens, 96 h)","pIC50 ([6]; Homo sapiens, NCI-H460, 96 h)","pIC50 ([7]; Homo sapiens, DU-145, 96 h)","pIC50 ([8]; Homo sapiens, Caco-2, 96 h)","pIC50 ([9]; Mus musculus, B16-F10, 96 h)",pIC50 [10],pIC50 [11],pIC50 [4],pIC50 [5],pIC50 [6],pIC50 [7],pIC50 [8],pIC50 [9],pIC50 [12],pIC50 [13],maximal calculated oral bioavailability (Fmax) based on stability data in rat Hepatocytes [14] [%],SMILES
6.33,< 5.00,< 5.00,,,,,,,,,,,,,,,,,,"CS(=O)(Cc1cc(Br)cc(Nc2ncc(F)c(-c3ccc(F)cc3F)n2)c1)=NC#N (racemic) [Example 18, (rac)-[(3-Bromo-5-{[4-(2,4-difluorophenyl)-5-fluoropyrimidin-2-yl]amino}benzyl)(methyl)oxido-λ^6-sulfanylidene]cyanamide]"
6.64,,,6.49,6.48,6.42,6.47,6.46,6.49,,,,,,,,,,,,"COc1cc(CS(C)(=O)=NC#N)cc(Nc2ncc(F)c(-c3ccc(F)cc3F)n2)c1 (racemic) [Example 20, (rac)-[(3-{[4-(2,4-Difluorophenyl)-5-fluoropyrimidin-2-yl]amino}-5-methoxybenzyl)(methyl)oxido-λ^6-sulfanylidene]cyanamide]"
,,,,,,,,,8.40,7.96,6.76,6.87,6.50,6.85,6.69,6.49,7.00,7.41,90,"CS(=O)(Cc1cc(Nc2ncc(F)c(-c3ccc(F)cc3F)n2)cc(S(F)(F)(F)(F)F)c1)=NC(N)=O (single isomer, unassigned) [Example 34, 1-{[3-{[4-(2,4-Difluorophenyl)-5-fluoropyrimidin-2-yl]amino}-5-(pentafluoro-λ^6-sulfanyl)benzyl](methyl)oxido-λ^6-sulfanylidene}urea]"
